Measured values reported in ChEMBL document CHEMBL1201862, “PubChem BioAssay data set” (2004).
“And” between values parts separate entries of the source, which are not always exact repeats. Equal entries are not always repeated. The source made the active and inactive calls.

Experiments:
[1] = target: Glycogen synthase kinase-3 alpha (Homo sapiens, UniProt P49840); test: Inhibition of Human GSK-3 alpha Activity Measured in Biochemical System Using Microfluidics - 2063-06_Inhibitor_Dose_DryPowder_Activity. [Related pubchem assays (depositor defined):AID2709]
[2] = target: Glycogen synthase kinase-3 beta (Homo sapiens, UniProt P49841); test: Inhibition of Human GSK-3 beta Activity Measured in Biochemical System Using Microfluidics - 2063-05_Inhibitor_Dose_DryPowder_Activity. [Related pubchem assays (depositor defined):AID2709]
[3] = target: Potassium voltage-gated channel subfamily KQT member 2/member 3 (Rattus norvegicus, UniProt O88943+O88944); test: Mode of action assay-Dose response assay for KCNQ2 activators in the KCNQ2/KCNQ3 co-expressing cells on automated patch clamp. [Related pubchem assays (depositor defined):AID2239, AID2258, AID2287]; assay type: functional
[4] = KCNQ1/KCNE1 channel current potentiation, dose response, selectivity assay for KCNQ2 activator project, automated patch clamp, CHO cells (AID 493042); assay type: functional
[5] = target: Potassium voltage-gated channel subfamily KQT member 2 (Rattus norvegicus, UniProt O88943); test: Mode of action assay-Dose response assay for compounds that activate KCNQ2 potassium channels on automated patch clamp. [Related pubchem assays (depositor defined):AID2239, AID2258, AID2287, AID493113]; assay type: functional
[6] = tested on: HEK293; test: cytotoxicity in HEK293T NF-kB-Luc cells, SAR follow-up, cytotoxicity control for NF-kB activator project, cell-based, resazurin fluorescence (AID 493251); assay type: functional; conditions: Homo sapiens
[7] = tested on: HEK293; test: SAR Analysis of small molecule inhibitors of T-cell specific antigen receptor-induced NF-kB activation in a HEK-293T cell line using a luminescence assay - Set 2. [Related pubchem assays (depositor defined):AID435003, AID435012, AID489026]; assay type: functional, cell-based; conditions: Homo sapiens
[8] = tested on: Jurkat; test: SAR Analysis of small molecule inhibitors of T-cell specific antigen receptor-induced NF-kB activation in a Jurkat cell line using a luminescence assay - Set 2. [Related pubchem assays (depositor defined):AID435003, AID435012, AID465]; assay type: functional, cell-based; conditions: Homo sapiens
[9] = target: Dual specificity tyrosine-phosphorylation-regulated kinase 1A (Rattus norvegicus, UniProt Q63470); assay type: biochemical, Homo sapiens
[10] = target: Dual specificity protein kinase CLK1 (Homo sapiens, UniProt P49759); test: CLK1 kinase inhibitors, off-target check, dose response, selectivity assay for Dyrk1A inhibitor project, biochemical, cherry-picked samples (AID 588811)
[11] = HEp-2 cell cytotoxicity, dose response, cytotoxicity control for RSV inhibitor project, HTS (AID 2410); assay type: functional; conditions: human respiratory syncytial virus
[12] = target: Mu-type opioid receptor (Homo sapiens, UniProt P35372); test: (§1) Counterscreen for agonists of heterodimerization of the mu 1 (OPRM1) and delta 1 (OPRD1) opioid receptors: Luminescence-based cell-based high throughput dose response assay to identify agonists of OPRM1 homodimerization.; assay type: functional
[13] = target: 5-hydroxytryptamine receptor 5A (Homo sapiens, UniProt P47898); test: Counterscreen for agonists of OPRM1-OPRD1 heterodimerization: luminescence-based cell-based high throughput dose response assay to identify agonists of 5-hydroxytryptamine (serotonin) 5A receptor (HTR5A). [Related pubchem assays (depositor defined):AID504326, AID504355, AID504692, AID504904, AID504905]; assay type: functional
[14] = inhibitors of HIV Env-driven cell fusion, dose response, cherry-pick (AID 652057); assay type: functional, cell-based
[15] = target: Paired box protein Pax-8 (Homo sapiens, UniProt Q06710); test: inhibitors of PAX8-driven TPO luciferase reporter, dose response, RMG-I cells, cherry-pick (AID 687027); assay type: functional, cell-based;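 further: luciferase reporter driven by Pax8 target thyroperoxidase promoter measured by SteadyGlo luminescence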
[16] = CEM21 lymphoblast cell cytotoxicity, dose response, cytotoxicity control for viral fusion inhibitor project, CellTiter-Glo luminescence, cherry-picked (AID 652042); assay type: functional, cell-based;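 further: potency for signal decrease meaning cytotoxicity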
[17] = target: Delta-type opioid receptor (Homo sapiens, UniProt P41143); test: as §1, with “of OPRD1” for “of OPRM1”, “homodimerization. [Related pubchem assays (depositor defined):AID504326, AID504355, AID504692, AID504904, AID504905]” for “homodimerization.”; assay type: functional
[18] = target: Voltage-gated inwardly rectifying potassium channel KCNH2 (Homo sapiens, UniProt Q12809); conditions: Potency;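 further: confirmatory quantitative high-throughput screen measuring inhibition of hERG channel activity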
[19] = target: Cytochrome P450 2D6 (Homo sapiens, UniProt P10635);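 further: CYP2D6 member of a cytochrome P450 panel assay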
Chain of Cytochrome P450 2D6 (P10635 whole entry): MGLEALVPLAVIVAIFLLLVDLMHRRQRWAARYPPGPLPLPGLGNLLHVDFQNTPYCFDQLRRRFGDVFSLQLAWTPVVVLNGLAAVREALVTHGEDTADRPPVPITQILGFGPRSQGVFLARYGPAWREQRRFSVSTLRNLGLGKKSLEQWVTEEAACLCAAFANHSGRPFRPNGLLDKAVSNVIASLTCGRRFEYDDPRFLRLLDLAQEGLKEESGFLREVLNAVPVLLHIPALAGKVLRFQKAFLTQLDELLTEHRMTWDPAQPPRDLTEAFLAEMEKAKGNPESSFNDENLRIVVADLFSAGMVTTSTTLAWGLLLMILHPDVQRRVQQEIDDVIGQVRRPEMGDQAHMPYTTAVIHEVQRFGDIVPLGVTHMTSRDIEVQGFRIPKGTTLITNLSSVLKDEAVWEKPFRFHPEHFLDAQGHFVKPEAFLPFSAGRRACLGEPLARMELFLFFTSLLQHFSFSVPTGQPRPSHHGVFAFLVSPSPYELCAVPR

Chain of Potassium voltage-gated channel subfamily KQT member 2 (O88943 whole entry): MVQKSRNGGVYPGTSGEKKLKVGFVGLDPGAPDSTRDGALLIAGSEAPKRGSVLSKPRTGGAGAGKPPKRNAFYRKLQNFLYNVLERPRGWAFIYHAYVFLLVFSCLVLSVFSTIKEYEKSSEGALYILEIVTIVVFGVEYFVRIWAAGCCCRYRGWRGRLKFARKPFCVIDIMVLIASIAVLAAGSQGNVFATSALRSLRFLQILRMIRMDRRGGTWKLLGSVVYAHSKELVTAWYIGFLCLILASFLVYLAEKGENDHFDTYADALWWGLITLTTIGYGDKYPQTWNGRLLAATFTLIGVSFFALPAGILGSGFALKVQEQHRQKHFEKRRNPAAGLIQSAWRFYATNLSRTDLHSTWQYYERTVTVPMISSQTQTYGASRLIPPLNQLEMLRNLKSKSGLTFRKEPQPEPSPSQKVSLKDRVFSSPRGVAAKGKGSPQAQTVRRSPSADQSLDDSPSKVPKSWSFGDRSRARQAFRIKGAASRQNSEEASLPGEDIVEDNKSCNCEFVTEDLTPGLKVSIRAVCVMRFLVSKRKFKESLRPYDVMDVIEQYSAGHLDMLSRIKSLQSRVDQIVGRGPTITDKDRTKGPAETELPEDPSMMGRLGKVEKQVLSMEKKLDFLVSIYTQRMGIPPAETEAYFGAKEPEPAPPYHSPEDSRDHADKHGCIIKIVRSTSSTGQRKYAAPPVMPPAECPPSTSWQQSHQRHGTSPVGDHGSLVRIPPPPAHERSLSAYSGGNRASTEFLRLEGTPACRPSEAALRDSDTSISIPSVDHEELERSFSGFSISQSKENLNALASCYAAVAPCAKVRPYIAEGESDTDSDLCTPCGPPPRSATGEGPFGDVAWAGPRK
Chain of Dual specificity protein kinase CLK1 (P49759 whole entry): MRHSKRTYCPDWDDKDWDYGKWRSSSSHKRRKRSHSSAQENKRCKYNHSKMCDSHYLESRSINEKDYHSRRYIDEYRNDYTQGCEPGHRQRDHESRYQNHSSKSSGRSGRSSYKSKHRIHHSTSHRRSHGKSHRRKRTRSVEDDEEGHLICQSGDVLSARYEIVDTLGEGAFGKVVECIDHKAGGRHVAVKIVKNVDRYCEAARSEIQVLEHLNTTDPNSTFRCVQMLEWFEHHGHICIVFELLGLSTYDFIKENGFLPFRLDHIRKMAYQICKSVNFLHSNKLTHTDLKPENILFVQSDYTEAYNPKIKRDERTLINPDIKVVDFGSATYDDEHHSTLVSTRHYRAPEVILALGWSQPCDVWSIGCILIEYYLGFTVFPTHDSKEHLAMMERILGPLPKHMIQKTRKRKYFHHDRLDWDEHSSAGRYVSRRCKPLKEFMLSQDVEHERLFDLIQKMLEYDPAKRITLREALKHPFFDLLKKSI
Chain of Voltage-gated inwardly rectifying potassium channel KCNH2 (Q12809 whole entry): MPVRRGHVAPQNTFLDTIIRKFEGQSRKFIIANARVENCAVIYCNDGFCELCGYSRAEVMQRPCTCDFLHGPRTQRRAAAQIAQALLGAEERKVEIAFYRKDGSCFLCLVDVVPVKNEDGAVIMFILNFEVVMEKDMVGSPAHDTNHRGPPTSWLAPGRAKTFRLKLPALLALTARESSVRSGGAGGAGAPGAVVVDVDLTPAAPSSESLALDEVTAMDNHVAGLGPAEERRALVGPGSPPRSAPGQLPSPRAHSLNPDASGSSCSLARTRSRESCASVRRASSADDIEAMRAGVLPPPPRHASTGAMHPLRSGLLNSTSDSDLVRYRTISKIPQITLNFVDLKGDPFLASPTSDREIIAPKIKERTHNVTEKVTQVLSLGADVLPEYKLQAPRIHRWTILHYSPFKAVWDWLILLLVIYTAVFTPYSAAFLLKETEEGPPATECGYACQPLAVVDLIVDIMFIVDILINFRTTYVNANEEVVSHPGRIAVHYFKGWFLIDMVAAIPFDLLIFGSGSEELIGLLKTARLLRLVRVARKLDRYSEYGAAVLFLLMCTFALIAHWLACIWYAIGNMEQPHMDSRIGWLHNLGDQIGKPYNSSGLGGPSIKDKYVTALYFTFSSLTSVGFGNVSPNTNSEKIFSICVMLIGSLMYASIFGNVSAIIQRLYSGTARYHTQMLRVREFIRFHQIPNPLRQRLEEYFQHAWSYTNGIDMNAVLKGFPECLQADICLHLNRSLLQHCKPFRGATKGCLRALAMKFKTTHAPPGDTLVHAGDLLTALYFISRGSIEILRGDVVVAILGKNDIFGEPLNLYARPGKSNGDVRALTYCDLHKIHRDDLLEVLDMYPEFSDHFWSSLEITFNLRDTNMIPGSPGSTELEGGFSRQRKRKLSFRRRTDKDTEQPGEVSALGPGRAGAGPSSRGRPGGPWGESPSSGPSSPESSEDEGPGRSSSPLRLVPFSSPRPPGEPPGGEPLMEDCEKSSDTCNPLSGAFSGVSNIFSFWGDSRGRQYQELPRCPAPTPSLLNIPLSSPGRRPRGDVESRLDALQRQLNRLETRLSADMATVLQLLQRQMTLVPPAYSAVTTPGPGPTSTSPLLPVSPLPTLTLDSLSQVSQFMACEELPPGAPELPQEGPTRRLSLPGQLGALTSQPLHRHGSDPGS
Chain of Paired box protein Pax-8 (Q06710 whole entry, the tested form may be a part): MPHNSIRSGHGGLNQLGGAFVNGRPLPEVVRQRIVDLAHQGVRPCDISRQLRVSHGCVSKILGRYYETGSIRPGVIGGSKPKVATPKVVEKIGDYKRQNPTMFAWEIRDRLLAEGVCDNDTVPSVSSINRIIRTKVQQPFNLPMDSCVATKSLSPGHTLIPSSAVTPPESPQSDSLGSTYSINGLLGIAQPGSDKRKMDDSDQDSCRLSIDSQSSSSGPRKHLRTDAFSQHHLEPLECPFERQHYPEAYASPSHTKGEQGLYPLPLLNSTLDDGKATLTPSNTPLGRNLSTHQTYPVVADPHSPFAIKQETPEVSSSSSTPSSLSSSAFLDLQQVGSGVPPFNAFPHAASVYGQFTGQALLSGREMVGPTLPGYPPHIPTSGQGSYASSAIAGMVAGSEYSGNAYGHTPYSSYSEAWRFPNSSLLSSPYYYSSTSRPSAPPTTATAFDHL
Chain of Potassium voltage-gated channel subfamily KQT member 2/member 3 (O88943 whole entry): as the sequence (O88943 whole entry) above
Chain of Potassium voltage-gated channel subfamily KQT member 2/member 3 (O88944 whole entry): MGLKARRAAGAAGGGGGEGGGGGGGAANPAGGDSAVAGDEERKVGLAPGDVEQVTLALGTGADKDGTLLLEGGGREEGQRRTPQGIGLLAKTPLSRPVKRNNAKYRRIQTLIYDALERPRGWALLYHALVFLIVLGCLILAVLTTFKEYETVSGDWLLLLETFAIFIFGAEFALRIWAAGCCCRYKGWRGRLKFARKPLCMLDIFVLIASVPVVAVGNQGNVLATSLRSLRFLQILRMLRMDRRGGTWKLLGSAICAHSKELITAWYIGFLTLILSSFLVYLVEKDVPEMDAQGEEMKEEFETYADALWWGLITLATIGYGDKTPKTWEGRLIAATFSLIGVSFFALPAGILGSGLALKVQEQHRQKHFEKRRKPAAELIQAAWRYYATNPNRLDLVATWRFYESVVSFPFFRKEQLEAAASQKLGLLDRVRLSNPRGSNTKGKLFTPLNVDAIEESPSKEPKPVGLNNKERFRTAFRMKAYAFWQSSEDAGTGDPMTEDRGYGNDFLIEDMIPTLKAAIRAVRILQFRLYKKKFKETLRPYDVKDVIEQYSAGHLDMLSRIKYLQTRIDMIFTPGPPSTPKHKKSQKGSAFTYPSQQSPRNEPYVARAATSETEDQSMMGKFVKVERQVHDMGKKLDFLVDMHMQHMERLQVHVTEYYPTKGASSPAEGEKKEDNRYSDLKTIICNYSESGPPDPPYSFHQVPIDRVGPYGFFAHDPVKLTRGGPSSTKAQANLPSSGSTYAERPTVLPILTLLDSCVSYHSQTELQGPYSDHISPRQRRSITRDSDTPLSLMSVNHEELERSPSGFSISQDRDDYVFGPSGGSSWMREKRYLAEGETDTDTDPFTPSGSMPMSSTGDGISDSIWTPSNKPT
Chain of Glycogen synthase kinase-3 alpha (P49840 whole entry): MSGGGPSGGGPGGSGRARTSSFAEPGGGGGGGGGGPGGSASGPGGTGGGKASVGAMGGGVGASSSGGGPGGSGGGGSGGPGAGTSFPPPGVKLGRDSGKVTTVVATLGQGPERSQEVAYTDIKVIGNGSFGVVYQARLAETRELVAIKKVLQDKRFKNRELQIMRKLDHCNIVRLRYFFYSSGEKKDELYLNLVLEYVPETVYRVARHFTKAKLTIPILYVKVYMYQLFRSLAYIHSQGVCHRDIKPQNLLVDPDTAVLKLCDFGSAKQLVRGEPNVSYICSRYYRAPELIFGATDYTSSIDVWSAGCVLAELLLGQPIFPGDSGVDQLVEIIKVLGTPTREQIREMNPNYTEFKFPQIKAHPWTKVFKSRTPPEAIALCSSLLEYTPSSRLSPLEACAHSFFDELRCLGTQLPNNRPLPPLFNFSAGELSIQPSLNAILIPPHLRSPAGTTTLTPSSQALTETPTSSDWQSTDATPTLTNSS

Compound: COC(=O)c1ccc(CSc2ccc3nnc(-c4ccc(OC)cc4)n3n2)o1
- AC50 [1]: 6.84 µM (active)
- AC50 [2]: 1.94 µM (active)

Compound: Cc1cc(C)c(NC(=O)C2CC3CCC2C3)c(C)c1 (centres undefined)
- EC50 [3]: 0.366 µM (active)
- EC50 [4]: 31.9 µM (active)
- EC50 [5]: 410 nM (active) and 369 nM (active) and 230 nM (active)

Compound: CC(C)(C)NC(=O)CCc1nc(-c2ccc(C(C)(C)C)cc2)no1
- IC50 [6]: 39 µM (inactive)
- IC50 [7]: 6.68 µM (active)
- IC50 [8]: 2.77 µM (active)

Compound: O=c1cc(-c2ccccc2Cl)oc2c(NS(=O)(=O)c3ccccc3C(F)(F)F)ccc(O)c12
- AC50 [9]: 65.4 µM (active)
- AC50 [10]: 18.9 µM (active)
- CC50 [11]: 48.5 µM (active)

Compound: CCN(c1nc(N)c(C(=O)NC(=N)N)nc1Cl)C(C)C [5-(N-ETHYL-N-ISOPROPYL)AMILORIDE]
- EC50 [12]: > 92.5 µM (inactive)
- EC50 [13]: 85.8 µM (inactive)
- AC50 [14]: 1.98 µM (active)
- AC50 [15]: 20.9 µM (active)
- AC50 [16]: 63.8 µM (active)
- EC50 [17]: 64.1 µM (inactive)
- AC50 [18]: 35.5 µM (inconclusive)
- AC50 [19]: 31.6 µM (inconclusive)
